Experimental data reported in the supplement of paper PMC10307832.

Assays:
Test in all cases: relative viability (nuclei count vs DMSO), 5 days (fraction); higher = more cells survive
LCLC-103H = tested on: LCLC-103H
In short: (§1)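 Relative viability was taken as the ratio of nuclei in treated wells to nuclei in vehicle wells. Lung cancer cell lines in 1536-well plates received compounds by pin tool one day after seeding, either one drug alone or a fixed anchor-drug dose plus five library-drug doses (not always all listed) in √10 steps. Nuclei were counted on 4× images after 5 days of treatment, and values are medians of duplicate plates.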

NCI-H3122 = tested on: NCI-H3122
In short: as §1

NCI-H650 = tested on: NCI-H650
In short: as §1

NCI-H460 = tested on: NCI-H460
In short: as §1

PC-14 = tested on: PC-14
In short: as §1

SW 900 = tested on: SW 900
In short: as §1

NCI-H441 = tested on: NCI-H441
In short: as §1

NCI-H322M = tested on: NCI-H322M
In short: as §1

SK-MES-1 = tested on: SK-MES-1
In short: as §1

NCI-H661 = tested on: NCI-H661
In short: as §1

LXF-289 = tested on: LXF-289
In short: as §1

NCI-H727 = tested on: NCI-H727
In short: as §1

RERF-LC-KJ = tested on: RERF-LC-KJ
In short: as §1

NCI-H596 = tested on: NCI-H596
In short: as §1

NCI-H1755 = tested on: NCI-H1755
In short: as §1

NCI-H1355 = tested on: NCI-H1355
In short: as §1

NCI-H2347 = tested on: NCI-H2347
In short: as §1

NCI-H1915 = tested on: NCI-H1915
In short: as §1

NCI-H1651 = tested on: NCI-H1651
In short: as §1

NCI-H2170 = tested on: NCI-H2170
In short: as §1

NCI-H520 = tested on: NCI-H520
In short: as §1

`CC1(C)CCC(c2ccc(Cl)cc2)=C(CN2CCN(c3ccc(C(=O)NS(=O)(=O)c4ccc(N[C@H](CCN5CCOCC5)CSc5ccccc5)c(S(=O)(=O)C(F)(F)F)c4)cc3)CC2)C1` [Navitoclax] + Cc1cc(Nc2cc(N3CCN(C)CC3)nc(Sc3ccc(NC(=O)C4CC4)cc3)n2)n[nH]1 [Tozasertib] (partner 0.1 µM) gave a relative viability (LCLC-103H; first compound 0.005 µM) of 0.505, a relative viability (LCLC-103H; first compound 0.01581 µM) of 0.516 and a relative viability (LCLC-103H; first compound 0.05 µM) of 0.442. The relative viability (LCLC-103H; first compound 0.1581 µM) was 0.404, the relative viability (LCLC-103H; first compound 0.5 µM) was 0.466 and the relative viability (NCI-H3122; first compound 0.005 µM) was 0.353. For the same molecule, the relative viability (NCI-H3122; first compound 0.01581 µM) was 0.286, the relative viability (NCI-H3122; first compound 0.05 µM) was 0.481 and the relative viability (NCI-H3122; first compound 0.1581 µM) was 0.306. For the same molecule, the relative viability (NCI-H3122; first compound 0.5 µM) was 0.373, the relative viability (NCI-H650; first compound 0.005 µM) was 0.711 and the relative viability (NCI-H650; first compound 0.01581 µM) was 0.818. For the same molecule, the relative viability (NCI-H650; first compound 0.05 µM) was 0.781, the relative viability (NCI-H650; first compound 0.1581 µM) was 0.765 and the relative viability (NCI-H650; first compound 0.5 µM) was 0.718. For the same molecule, the relative viability (NCI-H460; first compound 0.005 µM) was 0.392, the relative viability (NCI-H460; first compound 0.01581 µM) was 0.327 and the relative viability (NCI-H460; first compound 0.05 µM) was 0.37. The relative viability (NCI-H460; first compound 0.1581 µM) was 0.382, the relative viability (NCI-H460; first compound 0.5 µM) was 0.397 and the relative viability (PC-14; first compound 0.005 µM) was 0.623. For the same molecule, the relative viability (PC-14; first compound 0.01581 µM) was 0.633, the relative viability (PC-14; first compound 0.05 µM) was 0.7 and the relative viability (PC-14; first compound 0.1581 µM) was 0.553. The relative viability (PC-14; first compound 0.5 µM) was 0.559, the relative viability (SW 900; first compound 0.005 µM) was 0.456 and the relative viability (SW 900; first compound 0.01581 µM) was 0.46. For the same molecule, the relative viability (SW 900; first compound 0.05 µM) was 0.385, the relative viability (SW 900; first compound 0.1581 µM) was 0.59 and the relative viability (SW 900; first compound 0.5 µM) was 0.501. The relative viability (NCI-H441; first compound 0.005 µM) was 0.648, the relative viability (NCI-H441; first compound 0.01581 µM) was 0.846 and the relative viability (NCI-H441; first compound 0.05 µM) was 0.719. For the same molecule, the relative viability (NCI-H441; first compound 0.1581 µM) was 0.524, the relative viability (NCI-H441; first compound 0.5 µM) was 0.676 and the relative viability (NCI-H322M; first compound 0.005 µM) was 0.48. The relative viability (NCI-H322M; first compound 0.01581 µM) was 0.579, the relative viability (NCI-H322M; first compound 0.05 µM) was 0.491 and the relative viability (NCI-H322M; first compound 0.1581 µM) was 0.548. It also gave a relative viability (NCI-H322M; first compound 0.5 µM) of 0.532, a relative viability (SK-MES-1; first compound 0.005 µM) of 0.853 and a relative viability (SK-MES-1; first compound 0.01581 µM) of 0.976. It also gave a relative viability (SK-MES-1; first compound 0.05 µM) of 0.953, a relative viability (SK-MES-1; first compound 0.1581 µM) of 0.848 and a relative viability (SK-MES-1; first compound 0.5 µM) of 0.952. It also gave a relative viability (NCI-H661; first compound 0.005 µM) of 0.355, a relative viability (NCI-H661; first compound 0.01581 µM) of 0.344 and a relative viability (NCI-H661; first compound 0.05 µM) of 0.341. For the same molecule, the relative viability (NCI-H661; first compound 0.1581 µM) was 0.363, the relative viability (NCI-H661; first compound 0.5 µM) was 0.358 and the relative viability (LXF-289; first compound 0.005 µM) was 0.192. For the same molecule, the relative viability (LXF-289; first compound 0.01581 µM) was 0.222, the relative viability (LXF-289; first compound 0.05 µM) was 0.15 and the relative viability (LXF-289; first compound 0.1581 µM) was 0.193. It also gave a relative viability (LXF-289; first compound 0.5 µM) of 0.217, a relative viability (NCI-H727; first compound 0.005 µM) of 0.621 and a relative viability (NCI-H727; first compound 0.01581 µM) of 0.692. For the same molecule, the relative viability (NCI-H727; first compound 0.1581 µM) was 0.676, the relative viability (NCI-H727; first compound 0.5 µM) was 0.646 and the relative viability (RERF-LC-KJ; first compound 0.005 µM) was 0.507. The relative viability (RERF-LC-KJ; first compound 0.01581 µM) was 0.369, the relative viability (RERF-LC-KJ; first compound 0.05 µM) was 0.536 and the relative viability (RERF-LC-KJ; first compound 0.1581 µM) was 0.526. It also gave a relative viability (RERF-LC-KJ; first compound 0.5 µM) of 0.464, a relative viability (NCI-H596; first compound 0.005 µM) of 0.776 and a relative viability (NCI-H596; first compound 0.01581 µM) of 0.853. It also gave a relative viability (NCI-H596; first compound 0.1581 µM) of 0.885, a relative viability (NCI-H596; first compound 0.5 µM) of 1.03 and a relative viability (NCI-H1755; first compound 0.005 µM) of 0.523. The relative viability (NCI-H1755; first compound 0.01581 µM) was 0.599, the relative viability (NCI-H1755; first compound 0.05 µM) was 0.441 and the relative viability (NCI-H1755; first compound 0.1581 µM) was 0.453. The relative viability (NCI-H1755; first compound 0.5 µM) was 0.527, the relative viability (NCI-H1355; first compound 0.005 µM) was 0.549 and the relative viability (NCI-H1355; first compound 0.01581 µM) was 0.589. It also gave a relative viability (NCI-H1355; first compound 0.05 µM) of 0.456, a relative viability (NCI-H1355; first compound 0.1581 µM) of 0.585 and a relative viability (NCI-H1355; first compound 0.5 µM) of 0.518. The relative viability (NCI-H2347; first compound 0.005 µM) was 0.505, the relative viability (NCI-H2347; first compound 0.01581 µM) was 0.516 and the relative viability (NCI-H2347; first compound 0.1581 µM) was 0.614. For the same molecule, the relative viability (NCI-H2347; first compound 0.5 µM) was 0.668, the relative viability (NCI-H1915; first compound 0.005 µM) was 0.42 and the relative viability (NCI-H1915; first compound 0.01581 µM) was 0.422. It also gave a relative viability (NCI-H1915; first compound 0.05 µM) of 0.432, a relative viability (NCI-H1915; first compound 0.1581 µM) of 0.414 and a relative viability (NCI-H1915; first compound 0.5 µM) of 0.418. It also gave a relative viability (NCI-H1651; first compound 0.005 µM) of 0.586, a relative viability (NCI-H1651; first compound 0.01581 µM) of 0.686 and a relative viability (NCI-H1651; first compound 0.05 µM) of 0.493. It also gave a relative viability (NCI-H1651; first compound 0.1581 µM) of 0.62, a relative viability (NCI-H1651; first compound 0.5 µM) of 0.66 and a relative viability (NCI-H2170; first compound 0.005 µM) of 0.716. For the same molecule, the relative viability (NCI-H2170; first compound 0.01581 µM) was 0.71, the relative viability (NCI-H2170; first compound 0.05 µM) was 0.689 and the relative viability (NCI-H2170; first compound 0.1581 µM) was 0.684. It also gave a relative viability (NCI-H2170; first compound 0.5 µM) of 0.665, a relative viability (NCI-H520; first compound 0.005 µM) of 0.511 and a relative viability (NCI-H520; first compound 0.01581 µM) of 0.408. The relative viability (NCI-H520; first compound 0.05 µM) was 0.419, the relative viability (NCI-H520; first compound 0.1581 µM) was 0.376 and the relative viability (NCI-H520; first compound 0.5 µM) was 0.392.
